Data from US11547708B2, “Compositions and methods to protect mammalian tissue against cold and other metabolic stresses” (THE UNITED STATES OF AMERICA, AS REPRESENTED BY THE …, priority 2017, dated 2023).
Where a SMILES comes first, the peptide text is derived from it. The star is where a group is joined. Cbz = O=C(OCc1ccccc1)*

What was measured:
Assay type in all cases: cell-based
human iPSC-neurons [1] = experiment: Live cell imaging of lysosomes using Magic Red and DND-26 (lysosomal membrane permeabilization, LMP); conditions: 4-h at 4° C.
Method: GS and Human iPSC-derived neuronal cultures were prepared in duplicate and incubated with hibernate-medium containing Magic Red (1:1000; ImmunoChemistry Technologies, Bloomington, Minn.) at 37° C. for 25 min, followed by the addition of LysoTracker Green DND-26 (50 nM; Thermo Fisher, Waltham, Mass.; see Table 1) for 5 min. The dye-containing medium was then replaced with fresh hibernate-medium, and one group of cultures was incubated at 4° C. for 1, 4 or 16 h, while the other group remained at 37° C. serving as normal controls. The cold-exposed group was subjected to confocal imaging at various temperatures (10° C., room temperature, or 37° C.), while the control group was imaged at either room temperature or 37° C. […] Magic Red becomes fluorescent after being cleaved by the lysosomal protease cathepsin B, while DND-26 is an acidotropic probe that accumulates in the acidic lysosomal vesicles. When LMP occurs, Magic Red and DND-26 signals become diffused within the cytoplasm of the affected cells. It was determined that cells have LMP if they contain a single Magic Red-stained particle of diameter >5 μm, which is about the size of the neuronal cell nucleus.

human iPSC-neurons [2] = experiment: Evaluation of neuronal microtubule stability in response to cold (tubulin immunofluorescence, TUBB3+ microtubule tracing)
Method: The temperature-dependent experiments in this study were performed at ambient CO2 concentration, which required the use of hibernate-medium (Table 2) to maintain the physiological pH. Experiments were conducted by first incubating cultured neurons (human iPSC-derived, GS iPSC-derived, GS primary, or rat primary cultures) in hibernate-medium for 30 min at room temperature. During this time (pre-incubation), drug treatments (see Other Reagents, Table 1) were introduced to test cold resistance and microtubule stability. The cell culture dishes were then kept in an ambient 37° C. incubator, or in a 4° C. refrigerator. […] The pH of hibernate-medium was stable and maintained the pH between 7.0 and 7.4 even after 16-h incubation at 4° C.
Cultured neurons or rat retinal explants with or without treatments were fixed with 4% paraformaldehyde, permeabilized and washed with 0.1% Triton X-100 in phosphate buffered saline, and stained by antibodies against TUBB3. TUBB3+ microtubule paths in images of 188.94×188.94 μm^2 from human iPSC-derived neuronal cultures and images of 67.48×67.48 μm^2 from rat whole-mount retinas were traced with the ‘Simple Neurite Tracer’ plugin in ImageJ.

[3] = tested on: rat retinal ganglion cells (RGCs); experiment: Multielectrode array (MEA) recordings of RGC activity in cold-exposed rat retina explants; conditions: 4° C. for 4 h, Taxol 10 μM
Method: All experiments were carried out under dim red light. Rat retina explants were removed and cut into smaller pieces in hibernate-medium, and divided into different treatment groups for pre-incubation with drugs promoting microtubule stability or a DMSO vehicle control at room temperature for 30 minutes. The cold-exposed groups were incubated in the refrigerator, while the fresh control samples were incubated on the bench in dark at room temperature. […] After 4- or 24-hour incubation, the cold-exposed retinal explants were placed on the bench for 10-15 minutes, and washed twice with fresh hibernate-medium. Retinal explants from all groups were then transferred to oxygenated (95% O2/5% CO2) bicarbonate-buffered AMES medium at room temperature. The sclera and RPE were removed prior to flat mounting the neural retina with the ganglion cell (RGC)-side facing down onto the MEA.
During MEA recording, the neural retinas were perfused with 95% O2/5% CO2-balanced AMES perfusion at 37° C. to measure the spontaneous firing activity of the rat RGCs over the course of 15 minutes. […] For MEA data processing and analyses, the firing spikes of RGCs were first filtered and recorded in MC Rack with a high-pass filter set at 200 Hz, a low-pass filter set at 3000 Hz, and the automatic standard deviation for spike detection threshold was set at −6. […]

human iPSC-neurons [4] = experiment: Detection of protein aggregates on neuronal microtubules; conditions: 4° C. for 4 h, pre-incubation
Method: After treatments, cultured neurons were fixed with 4% paraformaldehyde for 10 minutes and then permeabilized and washed with 0.1% Triton X-100 in phosphate buffered saline. Protein aggregates were visualized by a dye that intercalates into the denatured and aggregated proteins and becomes fluorescent (Proteostat aggresome detection kit, Enzo, Farmingdale, N.Y.; see Table 2) (Shen, 2011). For accumulation of protein aggregates on the neuronal microtubules, cells were stained with TUBB3 antibody and the protein aggregate dye, and images (188.94 μm×188.94 μm) were taken. In each image, the number of protein aggregates residing on the microtubules was counted and divided by the total length of the TUBB3+ microtubule paths.

O=C1O[C@H]([C@@H](O)CO)C(O)=C1O [vitamin C, ascorbic acid]
LMP (number of cells containing diffuse Magic Red) (human iPSC-neurons [1]): alleviated LMP

CC(=O)O[C@H]1C(=O)[C@@]2(C)[C@H]([C@H](OC(=O)c3ccccc3)[C@]3(O)C[C@H](OC(=O)[C@H](O)[C@@H](NC(=O)c4ccccc4)c4ccccc4)C(C)=C1C3(C)C)[C@]1(OC(C)=O)CO[C@@H]1C[C@@H]2O [Taxol]
preservation of microtubules in cold (human iPSC-neurons [2]; human iPSC-neurons at 4° C., 10 μM (FIG. 6B)): preserved microtubules in cold
protection of neuronal microtubules, low dose (human iPSC-neurons [2]; human iPSC-neurons, 16-h cold exposure, 0.1 μM): did not protect
spontaneous RGC activity / firing rate distributions (MEA) [3]: did not preserve RGC activity

CCOC(=O)c1ccc(N2NC(=O)/C(=C/c3ccc([N+](=O)[O-])o3)C2=O)cc1 [PYR-41]
microtubule morphology after pre-treatment with ubiquitination inhibitor (human iPSC-neurons [2]; human iPSC-neurons, 4-h incubation at 4° C.): did not improve microtubule morphology

CC(C)C[C@@H](C=O)NC(=O)[C@H](CC(C)C)NC(=O)[C@H](CC(C)C)NC(=O)OCc1ccccc1 [MG-132] (Cbz-Leu-Leu-Leu-aldehyde)
protein aggregates along microtubule processes (human iPSC-neurons [4]): did not show any further increase in aggregation
